This is an account of results in patent publication US8143421B2, “Broadspectrum substituted benzimidazole sulfonamide HIV protease inhibitors” (priority 2002, dated 2012).

Molecules are shown by their SMILES. Read-outs that look alike come from different tables or passages of the source.

One data set has as its system HIV-1 strain LAI. In words: Cellular anti-HIV assay, MT4 cells, MTT readout, wild type HIV-1 strain LAI. It counts as cell-based. Here is the method:
The compounds of the present invention were examined for anti-viral activity in a cellular assay. […] The cellular assay was performed according to the following procedure.

A further data set in a line: in vitro. As to conditions: human.
The test system of another data set is mutant A. Type of data set: cell-based. The settings on record: FR=IC50(mutant strain)/IC50(HIV-1 strain LAI).
A further data set has as its system mutant E. Type of data set: cell-based. As to conditions: FR=IC50(mutant strain)/IC50(HIV-1 strain LAI).
For the next data set, the system named is mutant C. The data set is described as follows: Antiviral spectrum, fold resistance towards mutant C. Type of data set: cell-based. The settings on record: FR=IC50(mutant strain)/IC50(HIV-1 strain LAI). Here is the method:
(§1) Because of the increasing emergence of drug resistant HIV strains, the present compounds were tested for their potency against clinically isolated HIV strains harboring several mutations. These mutations are associated with resistance to protease inhibitors and result in viruses that show various degrees of phenotypic cross-resistance to the currently commercially available drugs such as for instance saquinavir, ritonavir, nelfinavir, indinavir and amprenavir. The viral strains R13025, R13027, R13028, R13029, R13034, R13080, T13127 and R13363 contained mutations as indicated below in Table 3.

A further data set relates to mutant H. The data set is described as follows: Antiviral spectrum, fold resistance towards mutant H. The settings on record: FR=IC50(mutant strain)/IC50(HIV-1 strain LAI). It counts as cell-based.
Another data set concerns mutant G. The data set is described as follows: Antiviral spectrum, fold resistance towards mutant G. Type of data set: cell-based. The settings on record: FR=IC50(mutant strain)/IC50(HIV-1 strain LAI). Here is the method:
as §1

For a further data set, the system named is mutant D. The data set is described as follows: Antiviral spectrum, fold resistance towards mutant D. The settings on record: FR=IC50(mutant strain)/IC50(HIV-1 strain LAI). Type of data set: cell-based. As for the experimental part:
as §1

In another data set the test system is mutant B. The data set is described as follows: Antiviral spectrum, fold resistance towards mutant B. It counts as cell-based. The settings on record: FR=IC50(mutant strain)/IC50(HIV-1 strain LAI). Here is the method: as §1
The next data set deals with mutant F. In words: Antiviral spectrum, fold resistance towards mutant F. Type of data set: cell-based. As to conditions: FR=IC50(mutant strain)/IC50(HIV-1 strain LAI). Here is the method: as §1

Turning to `CC(C)CN(C[C@@H](O)[C@H](Cc1ccccc1)NC(=O)O[C@H]1CO[C@H]2OCC[C@H]21)S(=O)(=O)c1ccc2ncn(Cc3ccccc3)c2c1` [Compound 1, [(1S,2R)-2-hydroxy-3-[(2-methylpropyl)[[1-(phenylmethyl)benzimidazol-6-yl]sulfonyl]amino]-1-(phenylmethyl)-propyl]carbamic acid, [(3R,3aS,6aR)-hexahydrofuro[2,3-b]furan-3-yl]ester], the IC50 was 0.794 nM with HIV-1 strain LAI (Human immunodeficiency virus 1, 120 h, Table 1, MT4 cells, five days, HIV-1 strain LAI, read-out: pIC50 (LAI) (converted)) and 0.794 nM in the data set on HIV-1 strain LAI (Human immunodeficiency virus 1, MT4, Table 4, wild type HIV-LAI strain, read-out: WT (pIC50 against wild type HIV-LAI strain) (converted)). Also, the CC50 at 5 days in the data set “in vitro” is 63100 nM. For the same compound, the “FR value towards mutant A” value with mutant A was 9.3. Moreover, the “FR towards mutant E” value in the data set with mutant E turned out to be 1.6. The “FR towards mutant C” value in the data set on mutant C is recorded as 1.1. In addition, in the data set on mutant H, the “FR towards mutant H” value turned out to be 33. Moreover, the “FR towards mutant G” value in the data set with mutant G is recorded as 275. Besides, the “FR towards mutant D” value in the data set on mutant D is given as 1.5. Besides, the “FR towards mutant B” value with mutant B was determined as 3.1. In the data set on mutant F, the “FR towards mutant F” value is listed as 40.
